Assays:
Panc-1 cells = assay: Wound-healing (scratch) migration assay; format: cell-based, human; details: Panc-1, 5 μM, 12 hours
Experimental: FIG. 12: Panc-1 and S2-013 cells plated in 24-well plate in a monolayer and scratch wound made with a 200 μl pipette tip and treated with indicated compounds at 5 μM for 12 hours.
The present Example investigates whether ARDAs inhibit the migratory and invasive potential of PDAC cells. Decreased invasive potential of PDAC cells was shown through wound-healing and matrigel-coated Boyden chambers assays. Cells grown to a monolayer were used in migration assay after a scratch was made and incubated for 12 hours. […] In contrast, CGP and Gem were not effective. As expected these compounds also exerted strong anti-invasive efficacy against Capan-1 cells. The tested concentrations at time (12 h) of assay, all cells in each treatment group were ≥90% viable.

[1] = test system: Gem-naïve and Gem-resistant PDAC cells; assay: Colony formation assay; format: cell-based, human
Experimental: (§1) S2-013 (FIG. 10A), MiaPaCa-2 (FIG. 10B) and MiaPaCa-GTR (FIG. 10C) show cells seeded at 1000 cells/well and treated with compounds (μM) for 14 days. Media was replaced every 72 hours. Cells were stained with 0.05% crystal violet. Conditioned media from MiaPaCa-2 cells after being treated with indicated compounds was separated on a zymogram gel to analyze the proteolytic activity of MMP9 after treatment (FIG. 10D).
FIG. 11: Inhibition of colony formation in S2-013 cells.
S2-013, MiaPaCa-2 and MiaPaCa-GTR were seeded at 1000 cells/well and treated with compounds (μM) for 14 days. Media was replaced every 72 h. Cells were stained with 0.05% crystal violet (FIG. 10A-C).

MiaPaCa-GR [2] = assay: Apoptosis, flow cytometry Annexin V and PI staining; format: cell-based, human; details: MiaPaCa-GR cells, 24 hours
Experimental: (§2) FIG. 18: Apoptotic induction of Gal and Analogs and Gem-resistant PDAC cells. (FIG. 18A) Galeterone and analogs induce apoptosis in S2-013 cells analyzed by acridine orange ethidium bromide staining. Cells were treated with 2.5 μM. (FIG. 18B) Galeterone and analogs were compared to gemcitabine in inducing apoptosis analyzed by flow cytometry in MiaPaCa-GR cells.
(§3) Cells treated with indicated doses for 24 hours were analyzed by acridine orange ethidium bromide assay and also by FACS analysis using Annexin V and PI staining following manufacturer's protocol. […] Galeterone and analogs induce apoptosis in S2-013 cells analyzed by acridine orange ethidium bromide staining ([…]). Galeterone and analogs were compared to gemcitabine in inducing both early and late apoptosis analyzed by flow cytometry (FIG. 18B).

S2-013 [3] = assay: Apoptosis, acridine orange ethidium bromide staining; format: cell-based, human; details: S2-013 metastatic cell line, 2.5 μM, 24 hours
Experimental: as §2, §3

MiaPaCa-2 = assay: MTT cell viability / anti-proliferative assay; format: cell-based, human; details: for anti-proliferative potency compared with gemcitabine: MiaPaCa-2 cells, MTT assay after a 7-day agent treatment
Experimental: FIG. 6: Inhibition of PDAC cell proliferation: MTT assay after a 7-day agent treatment.
(§4) FIG. 7: Effect of Galeterone, analogs and Gemcitabine on PDAC cells. MTT cell viability assays were conducted on Gem-naïve and Gem-resistant cells.
The present Example presents the in vitro anti-proliferative activities of compounds in three human PDAC cell lines, including, Capan-1, MiaPaCa-2 and S2-013 because of their relative resistant nature (30, 31). The cell lines used were authenticated by short tandem repeat.
(§5) The present Example investigates the potential efficacy of galeterone and three lead ARDAs in inhibiting cell viability of both gemcitabine naïve (Gem-naïve) and gemcitabine/erlotinib resistant human pancreatic cancer cells in vitro. […] Galeterone and its analogs show significant anti-proliferative active against both gemcitabine naïve and gemcitabine resistant PDAC cells.

S2-013 [4] = assay: MTT cell viability assay; format: cell-based; details: Homo sapiens, S2-013, single agent
Experimental: as §4, §5

MiaPaCa-GTR = assay: MTT cell viability assay; format: cell-based; details: Homo sapiens, MiaPaCa-GTR (gemcitabine/erlotinib resistant), single agent
Experimental: as §4
(§6) Examples below were preformed using a panel of PDAC cells from primary tumors (MiaPaca-2, Panc-1, Capan-1 and HS766T), metastatic lesions (S2-013 and S2VP10) and drug-resistant MiaPaCa-GR (gemcitabine resistant-200 nM) and MiaPaCa-GTR (erlotinib-2 μM/gemcitabine-200 nM) cell lines. The activities of ARDAs and Gemcitabine (Gem) can be evaluated using complementary assays and molecular determinants can also be identified in a panel of human PDAC cells. The mechanism(s) of action of ARDAs alone and in combination with Gem with the primary goal to identify the key mediators for their activities in PDAC cells are disclosed here. […] Initially four cell line (2 Gem-naïve and the two Gem-resistant lines) will be used. Key findings derived from these cell lines can be validated in additional cell lines if necessary. How these agents modulate Mnk1/2-peIF4E and NFκ-B can also be focused on.
(§7) The present Example investigates the potential efficacy of galeterone and three lead ARDAs in inhibiting cell viability of both gemcitabine naïve (Gem-naïve) and gemcitabine/erlotinib resistant human pancreatic cancer cells in vitro. […]

MiaPaCa-GR [5] = assay: MTT cell viability assay; format: cell-based; details: Homo sapiens, MiaPaCa-GR (gemcitabine resistant), single agent
Experimental: as §4, §6, §7

MMP9 = assay: Zymography of conditioned media from MiaPaCa-2 cells; format: cell-based, human; details: conditioned media of MiaPaCa-2 cells treated 3 days
Experimental: as §1
Zymography assays were performed by seeding cells in 10 cm plates in phenol-red free media with no fetal bovine serum (FBS) and treated for 3 days. Media from cells were concentrated using amicon ultra filtration columns and normalized protein run on a 10% gelatin gels. Conditioned media from MiaPaCa-2 cells after being treated with indicated compounds was separated on a zymogram gel to analyze the proteolytic activity of MMP9 after treatment (FIG. 10D). […] The ARDAs caused significant depletion of matrix metalloproteinases (MMPs).

[6] = compared to VN/124-1, reference (1); cited from earlier work
androgen receptor = target: T1, androgen receptor (Homo sapiens, UniProt P10275); details: compared to VN/124-1, reference (1); cited from earlier work
T1 sequence (P10275 1-920): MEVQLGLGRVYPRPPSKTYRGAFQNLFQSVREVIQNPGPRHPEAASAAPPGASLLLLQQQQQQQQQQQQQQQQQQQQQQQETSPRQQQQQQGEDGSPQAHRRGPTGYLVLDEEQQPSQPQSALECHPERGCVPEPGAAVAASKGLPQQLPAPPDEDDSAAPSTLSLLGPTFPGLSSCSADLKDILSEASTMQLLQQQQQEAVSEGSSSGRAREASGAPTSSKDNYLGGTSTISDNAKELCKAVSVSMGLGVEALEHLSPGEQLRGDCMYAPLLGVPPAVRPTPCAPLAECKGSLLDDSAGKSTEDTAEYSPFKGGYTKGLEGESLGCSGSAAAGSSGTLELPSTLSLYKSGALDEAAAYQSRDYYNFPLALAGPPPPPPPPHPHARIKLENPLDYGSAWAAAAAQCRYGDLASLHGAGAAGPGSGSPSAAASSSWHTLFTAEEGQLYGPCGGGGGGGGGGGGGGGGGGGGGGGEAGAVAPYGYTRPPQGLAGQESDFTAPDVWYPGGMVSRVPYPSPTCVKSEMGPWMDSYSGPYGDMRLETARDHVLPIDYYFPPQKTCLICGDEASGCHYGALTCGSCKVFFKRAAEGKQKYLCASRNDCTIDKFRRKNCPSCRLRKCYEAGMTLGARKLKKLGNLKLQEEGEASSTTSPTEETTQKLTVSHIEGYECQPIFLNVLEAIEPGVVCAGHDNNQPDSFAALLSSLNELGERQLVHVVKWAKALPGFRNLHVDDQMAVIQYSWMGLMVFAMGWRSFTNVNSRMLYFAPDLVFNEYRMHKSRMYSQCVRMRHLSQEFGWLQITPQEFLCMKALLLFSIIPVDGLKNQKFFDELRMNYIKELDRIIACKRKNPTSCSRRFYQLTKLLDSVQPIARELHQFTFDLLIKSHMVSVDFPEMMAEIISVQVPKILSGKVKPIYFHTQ

[7] = test system: patients with advanced-stage pancreatic cancer; details: in combination with gemcitabine, Moore et al. 2007; cited from earlier work
[8] = 1000 cells/well, treated 14 days, alone or in combination with gemcitabine

Nc1ncnc2n[nH]c(Nc3ccc(F)cc3)c12 [CGP, reference compound]
cell migration (Panc-1 cells): not effective
colony formation ([1]; CGP at 2.5 μM): did not significantly affect colony formation

C[C@]12CC[C@H](O)CC1=CC[C@@H]1[C@@H]2CC[C@]2(C)C(n3cnc4ccccc43)=CC[C@@H]12 [Galeterone, galeterone]
induction of apoptosis (MiaPaCa-GR [2]): significantly induce apoptosis
induction of apoptosis (S2-013 [3]): significantly induce apoptosis
cell migration (Panc-1 cells): significant inhibition
colony formation [1, 8]: significantly inhibited
GI50 (MiaPaCa-2; Homo sapiens, MIA PaCa-2, MiaPaCa-2, single agent, MTT): 1230 nM
anti-proliferative potency compared with gemcitabine (MiaPaCa-2): almost as potent as gemcitabine
GI50 (S2-013 [4]): 490 nM
GI50 (MiaPaCa-GTR): 2190 nM
GI50 (MiaPaCa-GR [5]): 7080 nM
MMP9 secretion (MMP9; alone): decreases MMP9 secretion
MMP9 secretion (MMP9; in combination with gemcitabine): decreases MMP9 secretion

Nc1ccn([C@@H]2O[C@H](CO)[C@@H](O)C2(F)F)c(=O)n1 [Gemcitabine, reference compound]
cell migration (Panc-1 cells): not effective
colony formation [1, 8]: inhibit colony formation

C[C@]12CC[C@H](OCc3ccncc3)CC1=CCC1C2CC[C@]2(C)C(n3cnc4ccccc43)=CCC12 (stereo partly shown) [VNPP414]
cell migration (Panc-1 cells): significant inhibition
anti-proliferative potency compared with gemcitabine (MiaPaCa-2): almost as potent as gemcitabine

C[C@]12CC[C@H](n3ccnc3)CC1=CC[C@@H]1[C@@H]2CC[C@]2(C)C(n3cnc4ccccc43)=CC[C@@H]12 [VNPP433-3β]
anti-proliferative potency compared with gemcitabine (MiaPaCa-2): almost as potent as gemcitabine

C[C@]12CC[C@H](OC(=O)n3ccnc3)CC1=CCC1C2CC[C@]2(C)C(n3cnc4ccccc43)=CCC12 (stereo partly shown) [VNPT-55]
anti-proliferative (AP) potency relative to VN/124-1 [6]: 4 fold
ARD potency relative to VN/124-1 (androgen receptor): 8 fold
anti-proliferative potency compared with gemcitabine (MiaPaCa-2): almost as potent as gemcitabine

C#Cc1cccc(Nc2ncnc3cc(OCCOC)c(OCCOC)cc23)c1 [erlotinib]
median overall survival benefit [7]: less than four weeks
